{"source": "paper PMC3570965", "about": "(Science translational medicine, 2012)", "key": {"[1]": {"details": "cited from earlier work"}, "[2]": {"assay": "Pharmacokinetic analyses in NOD/SCID mice", "format": "in vivo"}, "ccRCC tumorgraft lines": {"test_system": "ccRCC tumorgraft lines", "assay": "Drug trials in subcutaneous ccRCC tumorgraft lines", "format": "in vivo, NOD/SCID mice", "details": "4 ccRCC tumorgraft lines; dovitinib 30 mg/kg by gavage"}, "[3]": {"test_system": "TG144 tumorgraft-bearing mice", "assay": "Serum calcium", "format": "in vivo, NOD/SCID mice", "details": "TG144, end of trial"}, "[4]": {"test_system": "papillary RCC tumorgraft line (TG121)", "assay": "Drug trial in papillary RCC tumorgraft line TG121", "format": "in vivo, NOD/SCID mice", "details": "dovitinib 30 mg/kg by gavage"}, "ccRCC": {"test_system": "ccRCC", "details": "patients with ccRCC, randomized phase II trial; cited from earlier work"}, "[5]": {"test_system": "NSCLC cell line-derived xenograft", "assay": "NSCLC", "format": "in vivo, mice", "details": "same erlotinib regimen (12.5 mg/kg by gavage every 12 h)"}}, "note": "Like-named read-outs stand apart in the source and are kept apart here.", "data": [{"smiles": "CO[C@H]1C[C@@H]2CC[C@@H](C)[C@@](O)(O2)C(=O)C(=O)N2CCCC[C@H]2C(=O)O[C@H]([C@H](C)C[C@@H]2CC[C@@H](OCCO)[C@H](OC)C2)CC(=O)[C@H](C)/C=C(\\C)[C@@H](O)[C@@H](OC)C(=O)[C@H](C)C[C@H](C)/C=C/C=C/C=C/1C", "note": "[Everolimus]", "values": [{"measurement": "Cmin", "setting": "[1]; human, 10 mg PO qd, analyte Everolimus, mean ± SD, ref Awada et al., 2008", "value": "13.2 ± 7.2", "unit": "ng/mL"}]}, {"smiles": "CCNCCNC(=O)c1c(C)[nH]c(/C=C2\\C(=O)Nc3ccc(F)cc32)c1C", "note": "[desethyl sunitinib]", "values": [{"measurement": "metabolite as share of total circulating drug", "setting": "[1]; humans, day 1, after sunitinib, ref Table 6", "value": 13, "unit": "%"}, {"measurement": "metabolite as share of total circulating drug", "setting": "[2]; NOD/SCID mice, day 1, after sunitinib", "value": 38, "unit": "%"}]}, {"smiles": "CN1CCN(c2ccc3nc(-c4c(N)c5c(F)cccc5[nH]c4=O)[nH]c3c2)CC1", "note": "[dovitinib]", "values": [{"measurement": "effect on ccRCC tumorgraft growth", "setting": "ccRCC tumorgraft lines", "value": "profoundly suppressed"}, {"measurement": "effect on paraneoplastic hypercalcemia (serum calcium)", "setting": "[3]", "value": "inhibited the development of paraneoplastic hypercalcemia"}, {"measurement": "Terminal t1/2", "setting": "[1]; human, 500 mg PO qd, PK data at (D15), analyte Dovitinib, ref Kim, et al 2011", "value": 21, "unit": "h"}, {"measurement": "activity in papillary RCC tumorgraft line", "setting": "[4]", "value": "very active"}, {"measurement": "peak and overall exposures compared with humans", "setting": "[2]; dovitinib 30 mg/kg daily by gavage, mice", "value": "within the range reported in humans"}]}, {"smiles": "C#Cc1cccc(Nc2ncnc3cc(OCCOC)c(OCCOC)cc23)c1", "note": "[erlotinib]", "values": [{"measurement": "outcomes in combination with bevacizumab vs bevacizumab alone", "setting": "ccRCC", "value": "failed to show improved outcomes"}, {"measurement": "half-life", "setting": "[1]; humans", "value": 24, "unit": "h"}, {"measurement": "effect on NSCLC cell line-derived xenograft growth", "setting": "[5]", "value": "profound effect"}, {"measurement": "peak and overall exposures compared with humans", "setting": "[2]; erlotinib 12.5 mg/kg by gavage every 12 h, mice", "value": "higher"}]}, {"smiles": "CO[C@H]1C[C@@H]2CC[C@@H](C)[C@@](O)(O2)C(=O)C(=O)N2CCCC[C@H]2C(=O)O[C@H]([C@H](C)C[C@@H]2CC[C@@H](O)[C@H](OC)C2)CC(=O)[C@H](C)/C=C(\\C)[C@@H](O)[C@@H](OC)C(=O)[C@H](C)C[C@H](C)/C=C/C=C/C=C/1C", "note": "[sirolimus]", "values": [{"measurement": "share of circulating drug after temsirolimus administration", "setting": "[1]; humans, after temsirolimus administration", "value": 75, "unit": "%"}, {"measurement": "therapeutic range (trough levels) in humans", "setting": "[1]; humans", "value": "5 to 15", "unit": "ng/mL"}, {"measurement": "peak and overall exposures, fold higher than in humans", "setting": "[2]; sirolimus 0.5 mg/kg intraperitoneally every 48 h, NOD/SCID mice vs humans", "value": "2-3 fold"}]}, {"smiles": "CCN(CC)CCNC(=O)c1c(C)[nH]c(/C=C2\\C(=O)Nc3ccc(F)cc32)c1C", "note": "[sunitinib]", "values": [{"measurement": "peak exposures compared with humans", "setting": "[2]; sunitinib 10 mg/kg by gavage every 12 h, mice", "value": "slightly higher than in humans"}, {"measurement": "half-life compared with humans", "setting": "[2]; sunitinib, mice vs humans", "value": "much shorter in mice"}]}]}
